We go through 22 molecules from patent publication US20230416275A1, “MODULATORS OF CYSTIC FIBROSIS TRANSMEMBRANE CONDUCTANCE REGULATOR” (VERTEX PHARMACEUTICALS INCORPORATED, priority 2020, published 2023).

For the test, the target named is CFTR-mediated chloride transport in human intestinal epithelial enteroid cells (Homo sapiens, UniProt P13569). Put plainly: Membrane potential dye, Enteroid Assay A. It counts as cell-based. The conditions noted are these: for Ent. A Max Activity (%): % of chloride transport of triple combination control (3 μM N-[(6-amino-2-pyridyl)sulfonyl]-6-(3-fluoro-5-isobutoxy-phenyl)-2-[(4S)-2,2,4-trimethylpyrrolidin-1-yl]pyridine-3-carboxamide, 3 μM tezacaftor, 300 nM acute ivacaftor); for EC50: enteroid cells, 18-24 hours incubation, acute 10 μM forskolin and 300 nM ivacaftor, read-out: Ent. A EC50. Here is the method:
Base medium (ADF+++) consisted of Advanced DMEM/Ham's F12, 2 mM Glutamax, 10 mM HEPES, […] penicillin/streptomycin.
Intestinal enteroid maintenance medium (IEMM) consisted of ADF+++, 1×B27 supplement, 1×N2 supplement, 1.25 mM N-acetyl cysteine, 10 mM Nicotinamide, 50 ng/mL hEGF, 10 nM Gastrin, 1 μg/mL hR-spondin-1, 100 ng/mL hNoggin, TGF-b type 1 inhibitor A-83-01, 100 μg/mL Primocin, 10 μM P38 MAPK inhibitor SB202190.
Bath 1 Buffer consisted of 1 mM MgCl2, 160 mM NaCl, 4.5 mM KCl, 10 mM HEPES, 10 mM Glucose, 2 mM CaCl2.
Chloride Free Buffer consisted of 1 mM Magnesium Gluconate, 2 mM Calcium Gluconate, 4.5 mM Potassium Gluconate, 160 mM Sodium Gluconate, 10 mM HEPES, 10 mM Glucose.
Bath1 Dye Solution consisted of Bath 1 Buffer, 0.04% Pluronic F127, 20 μM Methyl Oxonol, 30 μM CaCCinh-A01, 30 μM Chicago Sky Blue.
Chloride Free Dye Solution consisted of Chloride Free Buffer, 0.04% Pluronic F127, 20 μM Methyl Oxonol, 30 μM CaCCinh-A01, 30 μM Chicago Sky Blue.
Chloride Free Dye Stimulation Solution consisted of Chloride Free Dye Solution, 10 μM forskolin, 100 μM IBMX, and 300 nM Compound III.
Human intestinal epithelial enteroid cells were obtained from the Hubrecht Institute for Developmental Biology and Stem Cell Research, Utrecht, The Netherlands and expanded in T-Flasks as previously described (Dekkers J F, Wiegerinck C L, de Jonge H R, Bronsveld I, Janssens H M, de Winter-de Groot K M, Brandsma A M, de Jong N W M, Bijvelds M J C, Scholte B J, Nieuwenhuis E E S, van den Brink S, Clevers H, van der Ent C K, Middendorp S and M Beekman J M. A functional CFTR assay using primary cystic fibrosis intestinal organoids. Nat Med. 2013 July; 19(7):939-45).
c. Enteroid Cell Harvesting and Seeding
Cells were recovered in cell recovery solution, collected by centrifugation at 650 rpm for 5 minutes at 4° C., resuspended in TrypLE and incubated for 5 minutes at 37° C. Cells were then collected by centrifugation at 650 rpm for 5 minutes at 4° C. and resuspended in IEMM containing 10 μM ROCK inhibitor (RI). The cell suspension was passed through a 40 μm cell strainer and resuspended at 1×10^6 cells/mL in IEMM containing 10 μM RI. Cells were seeded at 5000 cells/well into multi-well plates and incubated for overnight at 37° C., 95% humidity and 5% CO2 prior to assay.
d. Membrane Potential Dye, Enteroid Assay A
Enteroid cells were incubated with test compound in IEMM for 18-24 hours at 37° C., 95% humidity and 5% CO2. […] Briefly, cells were washed 5 times in Bath 1 Buffer. Bath 1 Dye Solution was added, and the cells were incubated for 25 minutes at room temperature. Following dye incubation, cells were washed 3 times in Chloride Free Dye Solution. Chloride transport was initiated by addition of Chloride Free Dye Stimulation Solution and the fluorescence signal was read for 15 minutes. […] Chloride transport was then expressed as a percentage of the chloride transport following treatment with 3 μM N-[(6-amino-2-pyridyl)sulfonyl]-6-(3-fluoro-5-isobutoxy-phenyl)-2-[(4S)-2,2,4-trimethylpyrrolidin-1-yl]pyridine-3-carboxamide, 3 μM (R)-1-(2,2-difluorobenzo[d][1,3]dioxol-5-yl)-N-(1-(2,3-dihydroxypropyl)-6-fluoro-2-(1-hydroxy-2-methylpropan-2-yl)-1H-indol-5-yl)cyclopropanecarboxamide and 300 nM acute N-[2,4-bis(1,1-dimethylethyl)-5-hydroxyphenyl]-1,4-dihydro-4-oxoquinoline-3-carboxamide triple combination control (% Activity).

CFTR-mediated chloride transport in human intestinal epithelial enteroid cells, sequence (P13569 with tags, fused parts or gaps DEL508-508): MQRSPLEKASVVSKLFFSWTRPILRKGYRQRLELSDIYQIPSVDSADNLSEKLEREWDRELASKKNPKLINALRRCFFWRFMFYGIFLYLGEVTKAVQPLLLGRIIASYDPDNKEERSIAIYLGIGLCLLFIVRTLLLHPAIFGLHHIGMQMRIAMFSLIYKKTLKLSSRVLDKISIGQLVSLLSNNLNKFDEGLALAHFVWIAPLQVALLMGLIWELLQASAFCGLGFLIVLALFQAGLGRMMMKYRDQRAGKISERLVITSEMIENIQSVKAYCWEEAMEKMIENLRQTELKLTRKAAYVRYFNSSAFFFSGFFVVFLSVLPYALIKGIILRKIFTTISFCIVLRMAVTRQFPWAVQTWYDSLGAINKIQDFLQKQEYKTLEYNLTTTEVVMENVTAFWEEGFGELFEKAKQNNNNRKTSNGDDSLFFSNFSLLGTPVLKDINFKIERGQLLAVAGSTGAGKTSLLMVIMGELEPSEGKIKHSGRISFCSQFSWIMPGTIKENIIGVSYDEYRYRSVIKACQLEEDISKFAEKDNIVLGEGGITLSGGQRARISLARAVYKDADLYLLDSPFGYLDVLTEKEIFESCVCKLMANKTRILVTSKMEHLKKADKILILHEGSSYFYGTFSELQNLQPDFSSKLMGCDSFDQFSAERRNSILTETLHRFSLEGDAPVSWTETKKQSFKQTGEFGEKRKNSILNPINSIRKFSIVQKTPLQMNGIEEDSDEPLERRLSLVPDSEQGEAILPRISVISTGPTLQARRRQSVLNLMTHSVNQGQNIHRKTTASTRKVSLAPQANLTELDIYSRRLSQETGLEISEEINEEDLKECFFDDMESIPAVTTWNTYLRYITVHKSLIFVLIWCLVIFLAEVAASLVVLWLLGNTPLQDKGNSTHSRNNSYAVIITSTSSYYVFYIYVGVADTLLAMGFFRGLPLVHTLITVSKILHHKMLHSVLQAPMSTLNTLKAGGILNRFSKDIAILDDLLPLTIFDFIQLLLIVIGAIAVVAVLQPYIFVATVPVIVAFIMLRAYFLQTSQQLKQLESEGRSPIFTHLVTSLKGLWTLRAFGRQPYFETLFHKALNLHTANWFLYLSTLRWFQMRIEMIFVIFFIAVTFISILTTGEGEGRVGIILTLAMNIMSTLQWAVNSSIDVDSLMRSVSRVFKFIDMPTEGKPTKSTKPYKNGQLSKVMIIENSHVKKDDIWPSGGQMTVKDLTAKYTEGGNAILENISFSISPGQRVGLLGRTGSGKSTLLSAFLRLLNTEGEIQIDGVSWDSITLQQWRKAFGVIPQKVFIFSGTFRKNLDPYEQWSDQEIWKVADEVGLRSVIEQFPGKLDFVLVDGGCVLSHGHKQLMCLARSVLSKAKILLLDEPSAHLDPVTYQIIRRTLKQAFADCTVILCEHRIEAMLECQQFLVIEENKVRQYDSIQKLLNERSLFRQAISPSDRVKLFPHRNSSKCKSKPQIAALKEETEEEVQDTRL

Consider `Cc1cccc(C)c1-c1cc2nc(n1)NS(=O)(=O)c1cccc(n1)NC(=O)[C@@H]1C[C@@H](CN(C(=O)OC(C)(C)C)C1)O2` (single isomer, unassigned) [Compound 16, tert-Butyl 19-(2,6-dimethylphenyl)-8,15,15-trioxo-2-oxa-15λ^6-thia-5,9,16,18,21,22-hexaazatetracyclo[15.3.1.13,7.110,14]tricosa-1(21),10,12,14(22),17,19-hexaene-5-carboxylate], for which the “Ent. A Max Activity (%)” value was “+++ (+++ is >60%)” and the EC50 is below 1000 nM.

On to `Cc1cccc(C)c1-c1cc2nc(n1)NS(=O)(=O)c1cccc(n1)NC(=O)[C@H]1C[C@H](CN(C(=O)OC(C)(C)C)C1)O2` (single isomer, unassigned) [Compound 17, tert-butyl 19-(2,6-dimethylphenyl)-8,15,15-trioxo-2-oxa-15λ^6-thia-5,9,16,18,21,22-hexaazatetracyclo[15.3.1.13,7.110,14]tricosa-1(21),10,12,14(22),17,19-hexaene-5-carboxylate], for which the “Ent. A Max Activity (%)” value is “+ (+ is <30%)”.

As for `Cc1cccc(C)c1-c1cc2nc(n1)NS(=O)(=O)c1cccc(c1)NC(=O)C1CC(O2)C(C)(C)N(Cc2ccccc2)C1` (single isomer, unassigned) [Compound 73, 5-Benzyl-19-(2,6-dimethylphenyl)-4,4-dimethyl-2-oxa-15λ^6-thia-5,9,16,18,21-pentaazatetracyclo[15.3.1.13,7.110,14]tricosa-1(21),10,12,14(22),17,19-hexaene-8,15,15-trione], the “Ent. A Max Activity (%)” value is given as “+ (+ is <30%)” and the half-maximal effective concentration (EC50) is below 1000 nM.

Regarding `Cc1cccc(C)c1-c1cc2nc(n1)NS(=O)(=O)c1cccc(c1)NC(=O)C1CC(O2)C(C)(C)N(Cc2ccccc2)C1` (single isomer, unassigned) [Compound 74, 5-benzyl-19-(2,6-dimethylphenyl)-4,4-dimethyl-2-oxa-15λ^6-thia-5,9,16,18,21-pentaazatetracyclo[15.3.1.13,7.110,14]tricosa-1(21),10,12,14(22),17,19-hexaene-8,15,15-trione], the “Ent. A Max Activity (%)” value was “+ (+ is <30%)”.

For `Cc1cccc(C)c1-c1cc2nc(n1)NS(=O)(=O)c1cccc(c1)NC(=O)[C@@H]1C[C@@H](CN(CC3C4(CC4)C34CC4)C1)O2` [Compound 6, (3S,7R)-19-(2,6-Dimethylphenyl)-5-({dispiro[2.0.24.13]heptan-7-yl}methyl)-2-oxa-15λ^6-thia-5,9,16,18,21-pentaazatetracyclo[15.3.1.13,7.110,14]tricosa-1(21),10(22),11,13,17,19-hexaene-8,15,15-trione], the “Ent. A Max Activity (%)” value was “+++ (+++ is >60%)” and the EC50 was below 1000 nM.

As for `Cc1cccc(C)c1-c1cc2nc(n1)NS(=O)(=O)c1cccc(c1)NC(=O)[C@@H]1C[C@@H](CN(Cc3ccccc3)C1)O2` [Compound 9, (3S,7R)-5-Benzyl-19-(2,6-dimethylphenyl)-2-oxa-15λ^6-thia-5,9,16,18,21-pentaazatetracyclo[15.3.1.13,7.110,14]tricosa-1(20),10,12,14(22),17(21),18-hexaene-8,15,15-trione], the “Ent. A Max Activity (%)” value is “+++ (+++ is >60%)” and the EC50 was below 1000 nM.

`Cc1cccc(C)c1-c1cc2nc(n1)NS(=O)(=O)c1cccc(n1)NC(=O)C1CC(CN(C(=O)OC(C)(C)C)C1)O2` (stereo not drawn) [Compound 13, tert-Butyl 19-(2,6-dimethylphenyl)-8,15,15-trioxo-2-oxa-15λ^6-thia-5,9,16,18,21,22-hexaazatetracyclo[15.3.1.13,7.110,14]tricosa-1(21),10,12,14(22),17,19-hexaene-5-carboxylate]: the “Ent. A Max Activity (%)” value is given as “+++ (+++ is >60%)” and the EC50 is below 1000 nM.

For `Cc1cccc(C)c1-c1cc2nc(n1)NS(=O)(=O)c1cccc(n1)NC(=O)C1CC(CN(C(=O)OC(C)(C)C)C1)O2` (stereo not drawn) [Compound 18], the “Ent. A Max Activity (%)” value is on record as “+++ (+++ is >60%)” and the EC50 lay in the range of 3000 to 30000 nM.

Turning to `Cc1cccc(C)c1-c1cc2nc(n1)NS(=O)(=O)c1cccc(c1)NC(=O)[C@@H]1C[C@@H](CN(S(=O)(=O)CC(C)(C)C)C1)O2` [Compound 19], the “Ent. A Max Activity (%)” value was “++ (++ is 30-60%)” and the EC50 is below 1000 nM.

Regarding `Cc1cccc(C)c1-c1cc2nc(n1)NS(=O)(=O)c1cccc(c1)NC(=O)[C@@H]1C[C@@H](CN(CCN(C)C)C1)O2` [Compound 20], the “Ent. A Max Activity (%)” value is “+ (+ is <30%)” and the EC50 was in the range of 3000 to 30000 nM.

In the case of `Cc1cccc(C)c1-c1cc2nc(n1)NS(=O)(=O)c1cccc(c1)NC(=O)[C@@H]1C[C@@H](CN(CCCC(C)(C)C)C1)O2` [Compound 22], the “Ent. A Max Activity (%)” value is “++ (++ is 30-60%)” and the EC50 was below 1000 nM.

Regarding `Cc1cccc(C)c1-c1cc2nc(n1)NS(=O)(=O)c1cccc(c1)NC(=O)[C@@H]1C[C@@H](CN(CCC(C)(C)C3CC3)C1)O2` [Compound 26], the “Ent. A Max Activity (%)” value is recorded as “+++ (+++ is >60%)” and the EC50 was below 1000 nM.

For `Cc1cccc(C)c1-c1cc2nc(n1)NS(=O)(=O)c1cccc(c1)NC(=O)[C@@H]1C[C@@H](CN(CC(C)C(F)(F)F)C1)O2` (stereo partly drawn) [Compound 29], the “Ent. A Max Activity (%)” value is reported as “+++ (+++ is >60%)” and the EC50 is below 1000 nM.

As to `Cc1cccc(C)c1-c1cc2nc(n1)NS(=O)(=O)c1cccc(c1)NC(=O)[C@@H]1C[C@@H](CN(CC3C(C)(C)C3(C)C)C1)O2` [Compound 31], the “Ent. A Max Activity (%)” value is “++ (++ is 30-60%)” and the 50% effective concentration (EC50) is below 1000 nM.

As to `COC(=O)N1C[C@@H]2C[C@H](C1)C(=O)Nc1cccc(c1)S(=O)(=O)Nc1nc(cc(-c3c(C)cccc3C)n1)O2` [Compound 32], the “Ent. A Max Activity (%)” value is listed as “+++ (+++ is >60%)” and the EC50 fell in the range of 1000 to 3000 nM.

With `Cc1cccc(C)c1-c1cc2nc(n1)NS(=O)(=O)c1cccc(c1)NC(=O)[C@@H]1C[C@@H](CN(C(=O)OCC(C)(C)C)C1)O2` [Compound 34], the “Ent. A Max Activity (%)” value was “+++ (+++ is >60%)” and the concentration for a half-maximal effect (EC50) is below 1000 nM.

For the molecule `CCCCCOC(=O)N1C[C@@H]2C[C@H](C1)C(=O)Nc1cccc(c1)S(=O)(=O)Nc1nc(cc(-c3c(C)cccc3C)n1)O2` [Compound 35], the “Ent. A Max Activity (%)” value is “+++ (+++ is >60%)” and the EC50 is below 1000 nM.

As to `Cc1cccc(C)c1-c1cc2nc(n1)NS(=O)(=O)c1cccc(c1)NC(=O)[C@@H]1C[C@@H](CN(C(=O)C3(C(F)(F)F)CC3)C1)O2` [Compound 36], the “Ent. A Max Activity (%)” value is given as “+++ (+++ is >60%)” and the concentration giving a half-maximal response (EC50) is below 1000 nM.

Consider `Cc1cccc(C)c1-c1cc2nc(n1)NS(=O)(=O)c1cccc(c1)NC(=O)[C@@H]1C[C@@H](CN(C(=O)C3C(C)(C)C3(C)C)C1)O2` [Compound 37], for which the “Ent. A Max Activity (%)” value is reported as “++ (++ is 30-60%)” and the EC50 is below 1000 nM.

Turning to `Cc1cccc(C)c1-c1cc2nc(n1)NS(=O)(=O)c1cccc(c1)NC(=O)[C@@H]1C[C@@H](CN(CCC3CCOCC3)C1)O2` [Compound 38], the “Ent. A Max Activity (%)” value is given as “++ (++ is 30-60%)” and the EC50 is 1000 to 3000 nM.

As to `CCN1C[C@@H]2C[C@H](C1)C(=O)Nc1cccc(c1)S(=O)(=O)Nc1nc(cc(-c3c(C)cccc3C)n1)O2` [Compound 39], the “Ent. A Max Activity (%)” value was “+++ (+++ is >60%)” and the EC50 fell in the range of 3000 to 30000 nM.

As to `CCCCN1C[C@@H]2C[C@H](C1)C(=O)Nc1cccc(c1)S(=O)(=O)Nc1nc(cc(-c3c(C)cccc3C)n1)O2` [Compound 40], the “Ent. A Max Activity (%)” value is on record as “++ (++ is 30-60%)” and the EC50 is below 1000 nM.
